From patent publication US11571401B2, “Compounds, compositions, kits, and methods for activating immune cells and/or an immune system response” (East Carolina University, priority 2017, dated 2023)

Experiments:
B16F10 melanoma cells [1] = assay: Cell surface calreticulin (CRT) expression by flow cytometry in B16F10 melanoma cells; assay type: cell-based, mouse
Description: DAMPs are proteins that are expressed on the surface of cancer cells (e.g., calreticulin (CRT)) or are released from cancer cells (e.g., ATP and HMGB1) after exposure to DAMP inducing agents. DAMPs signal immune cell mediated cancer death.
B16F10 melanoma cells were treated with 5 uM 15dPMJ2 (PMJ), 5 uM oxaliplatin (OX), drug vehicle (VEH, DMSO 0.1%) or cells remained untreated (UT) for 2 hours. After 2 hours, cell surface calreticulin (CRT) expression was measured by flow cytometric analysis.
Brefeldin A is a molecule that inhibits the movement of proteins from the ER to the golgi apparatus (inhibits ER-golgi trafficking). Proteins must move from the ER to golgi in order translocate to the cell surface.
B 16f10 cells were treated with vehicle (V), brefeldin A (BFA), 15dPMJ2 (PMJ) or brefeldin+15dPMJ2.

B16F10 melanoma cells [2] = assay: Extracellular ATP release from B16F10 melanoma cells; assay type: cell-based, mouse
Description: B16F10 melanoma cells were treated with 5 uM 15dPMJ2 (PMJ), 5uM oxaliplatin (OX), drug vehicle (VEH, DMSO 0.1%) or cells remained untreated (UT) for 4 hours. After 4 hours of drug treatment, the cell culture media from B16F10 cells was obtained to measured ATP levels.
B16F10 cells were treated with 15dPMJ2 (PMJ), oxaliplatin (OX), or drug vehicle (VEH) in the presence or absence of the ER stress inhibitor, GSK2656157 (“inhibitor” (I)).

A431 cells (NMSC) = assay: Cell surface CRT expression by flow cytometry in A431 cells; assay type: cell-based, human
Description: (§1) A431 cells (NMSC) and HT-29 (colon cancer) cells were treated with 15dPMJ2, oxaliplatin (OX), drug vehicle (VEH) or cells were untreated (UT) for 2 hours. Cell surface CRT expression was then detected by flow cytometric analysis.
(§2) Tumorigenic, A431, and non-tumorigenic, HaCaT keratinocyte cell lines were treated with 15dPMJ2 or drug vehicle (0.1% DMSO) and the cell surface expression of calreticulin (CRT; “eat me” signal) and CD47 (“don't eat me” signal) was detected by conducting flow cytometric analysis.

[3] = test system: HT-29 (colon cancer) cells; assay: Cell surface CRT expression by flow cytometry in HT-29 cells; assay type: cell-based; conditions: 5 μM (FIG. 6), 2 hours
Description: as §1

[4] = test system: non-tumorigenic, HaCaT keratinocyte cell line; assay: Cell surface CRT expression by flow cytometry in HaCaT keratinocytes; assay type: cell-based, human; conditions: HaCaT non-tumor keratinocytes vs drug vehicle (0.1% DMSO); FIG. 7
Description: as §2

A431 cells = assay: Cell surface CD47 expression by flow cytometry in A431 cells; assay type: cell-based, human; conditions: A431 tumor cells vs drug vehicle (0.1% DMSO); FIG. 8
Description: as §2

[5] = test system: non-tumorigenic, HaCaT keratinocyte cell line; assay: Cell surface CD47 expression by flow cytometry in HaCaT keratinocytes; assay type: cell-based, human; conditions: HaCaT non-tumor keratinocytes vs drug vehicle (0.1% DMSO); FIG. 8
Description: as §2

[6] = test system: immature dendritic cells isolated from the bone marrow of C57BL/6 mice; assay: Dendritic cell maturation: drug-treated B16F10 cells co-cultured with immature bone marrow dendritic cells; assay type: cell-based, mouse; conditions: FIG. 9
Description: B16F10 melanoma cells remained untreated (UT) or were treated with lipopolysaccharide (LPS; positive control dendritic cell activator), vehicle (VEH; 0.1% DMSO), 500 uM oxaliplatin (OXA; positive control DAMP inducer), or 5 uM 15dPMJ2 (PMJ). The drug-treated cancer cells were then co-cultured with immature dendritic cells that were isolated from the bone marrow of C57BL/6 mice (mouse strain from which the B16F10 cell line was derived). Cell surface markers for dendritic cell maturation were then detected.

B16F10 melanoma tumors = assay: Tumor-infiltrating mature dendritic cells in B16F10 melanoma tumors in mice; assay type: in vivo; conditions: C57BL/6 mice, peri-tumor route, 5 days, 0.5 and 0.25 mg/kg (FIG. 10), compared to cisplatin-, oxaliplatin-treated and untreated animals
Description: To determine if 15dPMJ2 can increase the amount of tumor-attacking immune cells in melanoma tumors, a pilot xenograft study was conducted. B16F10 melanoma cells were injected into the subcutaneous flank region of C57BL/6 mice and tumor growth was allowed until tumors were palpable. Animals were then treated by the peri-tumor route with 15dPMJ2, oxaliplatin (positive control DAMP inducer), cisplatin (negative control DAMP inducer), vehicle (PBS containing 0.1% DMSO) or animals were untreated. After 5 days of drug treatment, animals were euthanized and tumors excised for analysis of infiltrating immune cells (TILs). Tumors were dissociated to create a single cell suspension. The expression of MHC II and CD86 (dendritic cell maturation markers) was analyzed by conducting flow cytometric analysis.

tumor cells = conditions: background statement; see U.S. Pat. No. 9,328,060; cited from earlier work

C[C@H]1CCC/C=C/[C@@H]2C[C@H](O)C[C@H]2[C@H](O)/C=C/C(=O)O1 [Brefeldin A, reference compound]
15dPMJ2-mediated cell surface CRT expression in presence of brefeldin A (B16F10 melanoma cells [1]; brefeldin + 15dPMJ2, FIG. 4): inhibited 15dPMJ2-mediated cell surface CRT expression

CCCCC/C=C/C=C1/C(=O)C=CC1C/C=C/CCCC(=O)NCCO (centres unmarked) [Formula 15dPMJ2, 15-deoxy Δ^12,14-prostagladin J2-ethanolamide]
cell surface calreticulin (CRT) expression (B16F10 melanoma cells [1]; 5 uM, 2 hours, flow cytometry, FIG. 1): significantly greater than oxaliplatin | ATP release (extracellular ATP in cell culture media) (B16F10 melanoma cells [2]; 5 uM, 4 hours, FIG. 2): significantly increased ATP release compared to vehicle and oxaliplatin treated cells | cell surface CRT expression (DAMP expression) (A431 cells (NMSC); A431 cells, 5 μM (FIG. 5), 2 hours): potent inducer of DAMP expression | cell surface expression of calreticulin (CRT; eat me signal) (A431 cells (NMSC); A431 tumor cells vs drug vehicle (0.1% DMSO), FIG. 7): increased | cell surface CRT expression (DAMP expression) [3]: potent inducer of DAMP expression | cell surface expression of calreticulin (CRT; eat me signal) [4]: slight increase | cell surface expression of CD47 (don't eat me signal) (A431 cells): decreased | cell surface expression of CD47 (don't eat me signal) [5]: increase | expression of MHC II and CD86 (dendritic cell maturation markers) ([6]; B16F10 cells treated with 5 uM 15dPMJ2, then co-cultured with BMDCs): significantly increased the expression of MHC II and CD86 | quantity of mature dendritic cells (MHC II, CD86) that infiltrated the tumor (B16F10 melanoma tumors): increased the quantity of mature dendritic cells that infiltrated the tumor | cell death in tumor cells compared to non-tumor cells (tumor cells): preferentially causes cell death in tumor cells compared to non-tumor cells

Cc1cccc(CC(=O)N2CCc3c2ccc(-c2cn(C)c4ncnc(N)c24)c3F)n1 [GSK2656157, reference compound]
extracellular ATP levels after 15dPMJ2 in presence of the ER stress inhibitor (B16F10 melanoma cells [2]; inhibitor + 15dPMJ2 vs 15dPMJ2 alone, FIG. 3): significantly decreased extracellular ATP levels

O=C1[O][Pt]2([NH][C@@H]3CCCC[C@H]3[NH]2)[O]C1=O [Oxaliplatin, oxaliplatin, reference compound]
dendritic cell maturation (MHC II and CD86) ([6]; B16F10 cells treated with 500 uM oxaliplatin (100 times the concentration of 15dPMJ2), then co-cultured with BMDCs, compared with 15dPMJ2): caused similar levels of dendritic cell maturation
